Data reported in paper PMC6273912, “Novel 5-Substituted 2-(Aylmethylthio)-4-chloro-N-(5-aryl-1,2,4-triazin-3-yl)benzenesulfonamides: Synthesis, Molecular Structure, Anticancer Activity, Apoptosis-Inducing Activity and Metabolic Stability” (Molecules, 2016).
Where two headings read alike, the source gives them in different places.

Tests used:
HCT-116 (colon cancer) = assay: MTT cell viability assay, HCT-116; assay type: cell-based, human; conditions: Homo sapiens, HCT-116, 72 h, 72 h of incubation, mean ± SD
Protocol: (§1) All chemicals, if not stated otherwise, were obtained from Sigma-Aldrich (St. Louis, MO, USA). The MCF-7 cell line was purchased from Cell Lines Services (Eppelheim, Germany), the HeLa and HCT-116 cell lines were obtained from the Department of Microbiology, Tumor and Cell Biology, Karolinska Institute (Stockholm, Sweden). Cells were cultured in Dulbecco’s modified Eagle’s medium (DMEM) supplemented with 10% fetal bovine serum, 2 mM glutamine, 100 units/mL penicillin, and 100 μg/mL streptomycin. Cultures were maintained in a humidified atmosphere with 5% CO2 at 37 °C in an incubator (HeraCell, Heraeus, Langenselbold, Germany).
(§2) Cell viability was determined using the MTT (3-(4,5-dimethylthiazol-2-yl)-2,5-diphenyl-tetrazoliumbromide) assay. Stock solutions of the studied compounds were prepared in 100% DMSO. […] Cells were seeded in 96-well plates at a density of 5 × 10^3 cells/well and treated for 72 h with the examined compounds in the concentration range 1–100 μM (1, 10, 25, 50 and 100 μM). Following treatment, MTT (0.5 mg/mL) was added to the medium and cells were further incubated for 2 h at 37 °C. Cells were lysed with DMSO and the absorbance of the formazan solution was measured at 550 nm with a plate reader (1420 multilabel counter, Victor, Jügesheim, Germany). […] The experiment was performed in triplicate. Values are expressed as the mean ± SD of at least three independent experiments.

HeLa (cervical cancer) = assay: MTT cell viability assay, HeLa; assay type: cell-based, human; conditions: Homo sapiens, 72 h, 72 h of incubation, mean ± SD
Protocol: as §1, §2

MCF-7 (breast cancer) = assay: MTT cell viability assay, MCF-7; assay type: cell-based, human; conditions: Homo sapiens, MCF7, 72 h of incubation, mean ± SD
Protocol: as §1, §2

HCT-116, HeLa and MCF-7 = assay: MTT cell viability assay, all tested cell lines together; assay type: cell-based; conditions: Homo sapiens; average over HCT-116, HeLa and MCF-7; read-out: average IC50 against all tested cell lines
Protocol: as §1, §2

MCF-7 [1] = assay: Cell cycle analysis (sub-G1, DAPI flow cytometry), MCF-7; assay type: cell-based, human; conditions: MCF-7, 24 h, mean ± SD
Protocol: One of the most common mechanisms in anticancer drug treatment is changes in cell cycle, which can be measured by DNA content. Cell cycle distribution in HCT-116, HeLa and MCF-7 cells was examined to determine cycle arrest and/or presence of sub-G1 after treatment with compounds 37 and 46. […] Cell populations data are expressed as the mean ± SD of at least three independent experiments.
Following treatment, cells were fixed in cold 70% ethanol for 30 min. Fixed cells were stained for 15 min in buffer containing 500 μg/mL RNAse A (EURx, Gdansk, Poland) and 2.5 μg/mL of DAPI (Sigma-Aldrich, Munich, Germany). The fluorescence of DAPI was measured at 440 ± 40 nm with a flow cytometer (LSR II, BD Biosciences, Mountain View, CA, USA). Each experiment was performed at least in triplicate. Data were analyzed off-line using the BD FACSDiva (BD Biosciences).

MCF-7 [2] = assay: Mitochondrial membrane potential (JC-1), MCF-7; assay type: cell-based, human; conditions: MCF-7, 24 h, low and moderate concentrations
Protocol: Loss of the mitochondrial membrane potential (Δψm) is one of the earliest indicators of an apoptosis. It can be detected using fluorescent dye JC-1 (5,5′,6,6′-tetrachloro-1,1′,3,3′-tetraethylbenzimidazolylcarbocyanine iodide) exited with blue laser. JC-1 spontaneously forms dimer complexes (J aggregates) with red fluorescent or remain as a monomers with green fluorescence in cells with high and low Δψm, respectively.
Half an hour before the end of 24 h-treatment 2.5 μg/mL of JC-1 (5,5′,6,6′-tetrachloro-1,1′,3,3′-tetraethylbenzimidazolylcarbocyanine iodide) was added to the cell medium. As a negative control 100 μM CCCP (carbonyl cyanide 3-chlorophenylhydrazone) was used 15 min before JC-1 treatment. Following treatment cells were twice washed with PBS and analyzed with flow cytometer (LSR II, BD Biosciences).
Green and red fluorescence were observed using FL-1 (530 ± 30 nm) and FL-2 (585 ± 42 nm) channels, respectively. Percentage of cell population in red or green fluorescence gate indicated the level of Δψm. Decreasing red fluorescence cell population indicated lower Δψm.

[3] = Metabolic stability with human liver microsomes and NADPH; assay type: in vitro ADME; conditions: liver microsomes
Protocol: Stock solutions of studied compounds were prepared at concentration of 10 mM in DMSO. […] Incubation mixture contained 10 μM of a studied derivative, 1 mM of NADPH (Sigma-Aldrich) and 0.5 mg/mL of human liver microsomes (HLM, Sigma-Aldrich) in potassium phosphate buffer (0.1 M, pH 7.4). Incubation was carried out in thermostat at 37 °C and started by addition of studied compound. 50 μL samples were taken after 5, 15, 30, 45 and 60 min. Enzymatic reaction was terminated by the addition of the equal volume of ice-cold acetonitrile containing 10 μM of alprazolam (Sigma-Aldrich) serving as internal standard (IS). Control incubations were performed without NADPH to assess chemical instability. After collection, samples were immediately centrifuged (10 min, 10,000 rpm) and resulted supernatant was directly analyzed or kept in −80 °C until LC-MS analysis. Natural logarithm of a compound over IS peak area ratio was plotted versus incubation time. Metabolic half-time (t1/2) was calculated from the slope of the linear regression, as reported in [48].
LC-MS analysis was performed on an Agilent 1260 system coupled to SingleQuad 6120 mass spectrometer (Agilent Technologies, Santa Clara, CA, USA). Ascentis Express ES-CN (2.1 mm × 100 mm, 2.7 μm, Supelco Analytical, Bellefonte, PA, USA) was used in reversed-phase mode with gradient elution starting with 50% of phase A (10 mM ammonium formate in water) and 50% of phase B (10 mM ammonium formate in acetonitrile-water mixture, 95:5 v/v). […] Total analysis time was 10 min at 25 °C, flow rate was 0.4 mL/min and the injection volume was 20 μL. The mass spectrometer was equipped with electrospray ion source and operated in positive ionization. Mass analyzer was set individually to each compound to detect [M + H]^+ pseudomolecular ions. MSD parameters of the ESI source were as follows: nebulizer pressure 50 psig (N2), drying gas […] (N2), drying gas temperature 300 °C, capillary voltage 3.5 kV, fragmentor voltage 100 V.

IC50 (HCT-116 (colon cancer)): 64 ± 1 µM
IC50 (HeLa (cervical cancer)): 80 ± 2 µM
IC50 (MCF-7 (breast cancer)): 59 ± 2 µM
IC50 (HCT-116, HeLa and MCF-7): < 71 µM
half-life at 10 μM ([3]; pH 7.4, human liver microsomes 0.5 mg/mL, 1 mM NADPH, 10 μM compound, pH 7.4, 37 °C, up to 60 min, read-out: In Vitro Metabolic Half-Life t1/2): > 60 min
half-life at 10 μM ([3]; pH 7.4, value in parentheses beside >60, beyond the 60 min incubation, human liver microsomes, NADPH, read-out: In Vitro Metabolic Half-Life t1/2 (min), value in parentheses): 78.1 min
Compound: O=C(Nc1ccc(Cl)cc1)c1cc(S(=O)(=O)Nc2nncc(-c3ccc(C(F)(F)F)cc3)n2)c(SCc2ccccc2)cc1Cl [Compound 46, 4-Benzylthio-2-chloro-N-(4-chlorophenyl)-5-{N-[5-(4-trifluoromethylphenyl)-1,2,4-triazin-3-yl]sulfamoyl}-benzamide]
Sub-G1 cell population (MCF-7 [1]): 20% ± 5.6%
effect on mitochondrial membrane potential (Δψm) (MCF-7 [2]): remarkably decreased Δψm
